Reference: patent publication US4330532A, “Angiotensin-II analogues with antagonizing effects, containing an α-hydroxycarboxylic acid residue in position 8, and a process for the preparation thereof” (Richter Gedeon Vegyeszeti Gyar Rt., priority 1980, dated 1982)

Test system: hypertension provoked by angiotensin-II (Hypertensin (CIBA) infusion)
Assay: Antagonistic (hypotensive) effect on Hypertensin-infused narcotized male cats
Type: in vivo, cat
Method: The antagonistic effects of the new compounds of the formula (I) were investigated on narcotized male cats. After treating the animals with a ganglion blocking agent and bisecting the cervical vagus nerves on both sides, the animals were treated with an infusion of Hypertensin (CIBA) at a rate of 0.5 μg/kg/min. When the blood pressure of the animals reached a steady, increased level, the substance to be tested was administered either intravenously or subcutaneously in physiological saline solution or as an aqueous solution which also contained a carrier. The blood pressure drop was measured in mm Hg units, and the extent of decrease was expressed in percents related to the value before treatment. The statistical evaluation was performed on the basis of the blood pressure differences, by Student's single sample "t" test. The term "duration of effect" denotes the period elapsed until the observation of the last still significant (p±5%) blood pressure difference.

[1] = s.c., carboxymethyl cellulose (CMC) carrier, dose 100 μg/kg
[2] = s.c., carboxymethyl cellulose (CMC) carrier, dose 200 μg/kg
[3] = s.c., gelatine carrier, dose 200 μg/kg
[4] = s.c., physiological saline, dose 100 μg/kg
[5] = s.c., physiological saline, dose 200 μg/kg

CNCC(=O)N[C@@H](CCCN=C(N)N)C(=O)N[C@H](C(=O)N[C@@H](Cc1ccc(O)cc1)C(=O)N[C@H](C(=O)N[C@@H](Cc1cnc[nH]1)C(=O)N1CCC[C@H]1C(=O)N[C@@H](C)C(=O)O)C(C)C)C(C)C [Saralasin, (Sar^1, Ala^8)-angiotensin-II]
blood pressure drop, extent of decrease in percents related to the value before treatment (i.v., dose 10 μg/kg): 32%
duration of effect (i.v., dose 10 μg/kg): 15 min
blood pressure drop, extent of decrease in percents related to the value before treatment [1]: 23%
duration of effect [1]: 45 min
blood pressure drop, extent of decrease in percents related to the value before treatment [2]: 28%
duration of effect [2]: 90 min
blood pressure drop, extent of decrease in percents related to the value before treatment [3]: 23%
duration of effect [3]: .phi.
blood pressure drop, extent of decrease in percents related to the value before treatment [4]: 29%
duration of effect [4]: 60 min
blood pressure drop, extent of decrease in percents related to the value before treatment [5]: 24%
duration of effect [5]: 45 min
